According to patent US12419898B2, “Synergistic composition for maintenance of healthy balance of microflora” (Kimberly-Clark Worldwide, Inc., priority 2015, dated 2025):

Test system: L. crispatus and E. coli
Assay: Therapeutic effect protocol: L. crispatus / E. coli co-culture in LAPT-g media supplemented with therapeutic agents
Assay type: cell-based
Conditions: anaerobic, 37° C., measured 36 hours after inoculation, agent w/vol % as given per sample
Description: Therapeutic Effect Protocol
Colonies of L. crispatus and E. coli were prepared as follows. A colony of L. crispatus was transferred to 7 ml MRS broth and incubated anaerobically (using BD GasPak EZ anaerobe container system with indicator) at 37° C. without shaking for 18-20 hours. A colony of E. coli was transferred to 5 ml TSB broth and incubated aerobically (shaking at 100 rpm) at 37° C. for 18-20 hours.
Colonies were then inoculated as follows. Bacterial cultures were gently vortexed and 1 mL of each culture was transferred to a corresponding 2.0 mL micro-centrifuge tube and then centrifuged for two minutes at 14,500 rpm. The cultural supernatant was removed and the cell pellet was re-suspended in 1 mL of 0.95% (wt/vol %) saline. The re-suspended colony was then centrifuged for two minutes at 14,500 rpms and the supernatant was removed. For L. crispatus, the pellet was re-suspended in 1 mL of 0.95% saline to achieve ˜10^7-10^8 cfu/mL. For E. coli the pellet was re-suspended in 1 mL of 0.95% saline to achieve ˜10^8-10^9 cfu/mL.
Media were prepared as follows.
All of the ingredients in Table 1 were combined and the pH was adjusted to 6.5. The media were then autoclaved for 20 minutes at 125° C. To evaluate the effect of various therapeutic agents on the growth of bacteria the LAPT-g media, prepared as described above, was supplemented with various therapeutic agents to a final test concentration between 0.1 and 1.0%.
Five milliliters (5 mL) of each medium was transferred to a test tube in duplicates for subsequent inoculation. A master mixture of L. crispatus and E. coli, prepared as described above, was prepared in 1,000:1 ratio. Each (5 ml) test tube was inoculated with the master mixture to give 10^5-10^6 total CFU L. crispatus and 100-1,000 total CFU E. coli per tube.
To establish a negative control, one tube was vortexed and 100 μL was removed to determine the initial cell concentrations by serial dilutions and plating (2 plates per dilution). L. crispatus is selected on MRS agar plates incubated anaerobically at 37° C. for two days. E. coli is selected on TSA plates incubated aerobically at 37° C. for one day. The co-cultures were incubated in an anaerobic container with BD GasPaks at 37° C. for 36 hours.
The effect of the carbon source on the ratio of L. crispatus to E. coli was measured 36 hours after inoculation. The co-culture tube was vortexed and 100 μL was removed to determine the final cell concentrations by serial dilutions and plating (2 plates per dilution). L. crispatus is selected on MRS agar plates incubated anaerobically at 37° C. for two days. E. coli is selected on TSA plates incubated aerobically at 37° C. for one day.
Inventive samples were prepared by supplementing LAPT-g media, prepared as described above, with various therapeutic agents as described in Table 2, below. The therapeutic effect of the formulation was then measured using the assay described above in the Test Methods section above. The therapeutic effect is summarized below as the ratio of L. crispatus to E. coi.

Structure (SMILES)	L. crispatus/E. coli ratio
OC[C@H]1O[C@@H](O[C@@H]2[C@@H](CO)OC(O)(CO)[C@H]2O)[C@H](O)[C@@H](O)[C@H]1O (mixture of isomers) [Sample 28, Lactulose]	3.9
O=CC[C@H](O)[C@H](O)CO [Sample 21, 2-Deoxy-D-Ribose]	1.7
CO[C@H]1O[C@H](CO)[C@@H](O)[C@H](O)[C@H]1O [Sample 22, α-Methyl-D-Glucoside]	3
OC[C@H]1O[C@@H]2O[C@H]3[C@H](O)[C@@H](O)[C@@H](O[C@H]4[C@H](O)[C@@H](O)[C@@H](O[C@H]5[C@H](O)[C@@H](O)[C@@H](O[C@H]6[C@H](O)[C@@H](O)[C@@H](O[C@H]7[C@H](O)[C@@H](O)[C@@H](O[C@H]1[C@H](O)[C@H]2O)O[C@@H]7CO)O[C@@H]6CO)O[C@@H]5CO)O[C@@H]4CO)O[C@@H]3CO [Sample 23, α-Cyclodextrin]	6.5
O=C[C@@H](O)[C@H](O)[C@H](O)CO [Sample 24, D-Arabinose]	2.2
O.O.OC[C@H]1O[C@H](O[C@H]2O[C@H](CO)[C@@H](O)[C@H](O)[C@H]2O)[C@H](O)[C@@H](O)[C@@H]1O [Sample 26, D-Trehalose]	30.1
O=C(O)CC(O)C(=O)O (centres unmarked) [Sample 29, Malic acid]	30.7
OCc1ccccc1O[C@@H]1O[C@H](CO)[C@@H](O)[C@H](O)[C@H]1O [Sample 32, Salicin]	1.5
